In brackets after ≈: the same amount, converted by molar mass. Like-named read-outs stand apart in the source and are kept apart here.
What was measured:
Format in all cases: cell-based
E. cloacae = test: MIC, dilutions in liquid medium, alone and combined with NXL105; conditions: Enterobacter cloacae
Procedure: (§1) In vitro activity, method of dilutions in liquid medium:
(§2) A series of test 96-well microtiter plates are prepared in which the same quantity of sterile nutritive medium is distributed. […] After 24 h of incubation in a 37° C. oven, growth inhibition is evaluated by transillumination, which makes it possible to determine the minimum inhibitory concentrations (MICS) expressed in μg/ml.

K. pneumoniae = test: as above
Procedure: as §1, §2

C. freundii = test: as above; conditions: Citrobacter freundii
Pseudomonas aeruginosa = test: as above; conditions: Pseudomonas aeruginosa
Procedure: as §1
A series of test 96-well microtiter plates are prepared in which the same quantity of sterile nutritive medium is distributed. Increasing quantities of the compound to be studied, namely the antibacterial compound alone and the inventive combination with the compound of formula (I) of example 1, are distributed in each plate in the respective proportions 2:1 and 4:1, and then each plate is inoculated with a bacterial strain of Pseudomonas aeruginosa. After 24 h of incubation in a 37° C. oven, growth inhibition is evaluated by transillumination, which makes it possible to determine the minimum inhibitory concentrations (MICS) expressed in μg/ml.

K. oxytoca = test: as above; conditions: Klebsiella oxytoca, read-out: MIC
E. coli = test: microbe, parasite or virus in culture; conditions: Escherichia coli
Procedure: as §1, §2

Compound: C[C@@H](O)[C@H]1C(=O)N2C(C(=O)O)=C(S[C@@H]3CN[C@H](C(=O)N(C)C)C3)[C@H](C)[C@H]12 [Meropenem]
- MIC (E. cloacae): 0.125 µg/mL
- MIC (E. cloacae; 24 h, E. cloacae 7506, KPC-2 + TEM-1 + KLUC-2, read-out: MIC): 16 µg/mL
- MIC (E. cloacae; E. cloacae (no alias), AmpC, read-out: MIC): 0.5 µg/mL
- MIC (K. pneumoniae; K. pneumoniae 236, SHV-5 + TEM-10): 0.125 µg/mL
- MIC (K. pneumoniae; K. pneumoniae 444, SHV-5 + TEM-2 + PER): 0.125 µg/mL
- MIC (K. pneumoniae; K. pneumoniae 1734, FOX-3 + TEM-1): 0.125 µg/mL
- MIC (K. pneumoniae; K. pneumoniae 9701, CMY-4 + TEM-1): 0.125 µg/mL
- MIC (K. pneumoniae; K. pneumoniae Tunisie clone K1, CTX-M-16 + OXA-1): 0.125 µg/mL
- MIC (K. pneumoniae; K. pneumoniae Tunisie clone K4, CTX-M-15 + TEM-1 + OXA-1): 0.125 µg/mL
- MIC (K. pneumoniae; Klebsiella pneumoniae): 0.125 µg/mL
- MIC (K. pneumoniae; Klebsiella pneumoniae, 24 h, K. pneumoniae 60, SHV-2 + TEM-2 + PER, read-out: MIC): 0.06 µg/mL
- MIC (K. pneumoniae; Klebsiella pneumoniae, 24 h, K. pneumoniae 157, SHV-5 + TEM-26, read-out: MIC): ≤ 0.03 µg/mL
- MIC (K. pneumoniae; Klebsiella pneumoniae, 24 h, K. pneumoniae 181, SHV-5 + TEM-10, read-out: MIC): 4 µg/mL
- MIC (K. pneumoniae; Klebsiella pneumoniae, 24 h, K. pneumoniae 238, SHV-2 + TEM-12 + CTX-M-2, read-out: MIC): ≤ 0.03 µg/mL
- MIC (K. pneumoniae; Klebsiella pneumoniae, 24 h, K. pneumoniae 253, SHV-2 + TEM-12 + CTX-M-2, read-out: MIC): 0.06 µg/mL
- MIC (K. pneumoniae; Klebsiella pneumoniae, 24 h, K. pneumoniae 427, SHV-1 + TEM-1B + CTX-M-3, read-out: MIC): 0.06 µg/mL
- MIC (K. pneumoniae; Klebsiella pneumoniae, 24 h, K. pneumoniae 441, SHV-1 + TEM-2 + PER, read-out: MIC): 0.06 µg/mL
- MIC (K. pneumoniae; Klebsiella pneumoniae, 24 h, K. pneumoniae 449, SHV-1 + TEM-2 + PER, read-out: MIC): ≤ 0.03 µg/mL
- MIC (K. pneumoniae; Klebsiella pneumoniae, 24 h, K. pneumoniae 465, TEM-1B + CTX-M-2, read-out: MIC): 0.25 µg/mL
- MIC (K. pneumoniae; Klebsiella pneumoniae, 24 h, K. pneumoniae KOL, MOX-2 + SHV-5 + TEM-1, read-out: MIC): 0.06 µg/mL
- MIC (K. pneumoniae; Klebsiella pneumoniae, 24 h, K. pneumoniae Patient 1BHR, VIM-4 + CTX-M-15 = CMY-4 + TEM-1, read-out: MIC): 16 µg/mL
- MIC (K. pneumoniae; Klebsiella pneumoniae, 24 h, K. pneumoniae Patient F, VIM-1 + SHV-5, read-out: MIC): > 32 µg/mL
- MIC (K. pneumoniae; Klebsiella pneumoniae, 24 h, K. pneumoniae SLK54, ACC-1 + TEM-1, read-out: MIC): 0.06 µg/mL
- MIC (K. pneumoniae; Klebsiella pneumoniae, 24 h, K. pneumoniae TN58467, DHA-1 + SHV-2a + TEM-1, read-out: MIC): 0.25 µg/mL
- MIC (K. pneumoniae; Klebsiella pneumoniae, ATCC700603, K. pneumoniae ATCC 700603, SHV-18, read-out: MIC): 0.06 µg/mL
- MIC (K. pneumoniae; Klebsiella pneumoniae, K. pneumoniae 26, SHV-5, read-out: MIC): ≤ 0.03 µg/mL
- MIC (K. pneumoniae; Klebsiella pneumoniae, K. pneumoniae CL5761, KPC-3, read-out: MIC): > 32 µg/mL
- MIC (K. pneumoniae; Klebsiella pneumoniae, K. pneumoniae CL5762, KPC-3, read-out: MIC): > 32 µg/mL
- MIC (K. pneumoniae; Klebsiella pneumoniae, K. pneumoniae CL5763, KPC-3, read-out: MIC): > 32 µg/mL
- MIC (K. pneumoniae; Klebsiella pneumoniae, K. pneumoniae VA8, KPC-3, read-out: MIC): ≤ 0.03 µg/mL
- MIC (K. pneumoniae; Klebsiella pneumoniae, K. pneumoniae VAKP, KPC-2, read-out: MIC): 32 µg/mL
- MIC (K. pneumoniae; Klebsiella pneumoniae, K. pneumoniae YC, KPC-2, read-out: MIC): 32 µg/mL
- MIC (C. freundii): 0.125 µg/mL
- MIC (C. freundii; 24 h, C. freundii (no alias), AmpC + TEM-1, read-out: MIC): 0.06 µg/mL
- MIC (C. freundii; C. freundii (no alias, table row r121), AmpC, read-out: MIC): 0.25 µg/mL
- MIC (C. freundii; C. freundii (no alias, table row r122), AmpC, read-out: MIC): 0.06 µg/mL
- MIC (C. freundii; C. freundii (no alias, table row r125), AmpC, read-out: MIC): 0.06 µg/mL
- MIC (Pseudomonas aeruginosa; ATCC27853, P. aeruginosa ATCC 27853): 1 µg/mL
- MIC (Pseudomonas aeruginosa; P. aeruginosa 391HG2): > 32 µg/mL
- MIC (Pseudomonas aeruginosa; P. aeruginosa 391HG21): > 32 µg/mL
- MIC (Pseudomonas aeruginosa; P. aeruginosa 391HG38): 32 µg/mL
- MIC (Pseudomonas aeruginosa; P. aeruginosa 391HG39): 0.06 µg/mL
- MIC (Pseudomonas aeruginosa; P. aeruginosa 391HG58): 32 µg/mL
- MIC (Pseudomonas aeruginosa; P. aeruginosa 391HG118): 8 µg/mL
- MIC (Pseudomonas aeruginosa; P. aeruginosa 391HG123): 32 µg/mL
- MIC (Pseudomonas aeruginosa; P. aeruginosa 391HG158): 32 µg/mL
- MIC (Pseudomonas aeruginosa; P. aeruginosa 391HG271): > 32 µg/mL
- MIC (Pseudomonas aeruginosa; P. aeruginosa 391HG329): > 32 µg/mL
- MIC (Pseudomonas aeruginosa; P. aeruginosa 391K767): 2 µg/mL
- MIC (Pseudomonas aeruginosa; P. aeruginosa 391K1455): 4 µg/mL
- MIC (Pseudomonas aeruginosa; P. aeruginosa 391K1523): 2 µg/mL
- MIC (Pseudomonas aeruginosa; P. aeruginosa 391K1525): 2 µg/mL
- MIC (Pseudomonas aeruginosa; P. aeruginosa 391K1536): 2 µg/mL
- MIC (Pseudomonas aeruginosa; P. aeruginosa 391K2376): 2 µg/mL
- MIC (Pseudomonas aeruginosa; P. aeruginosa 391K2379): 4 µg/mL
- MIC (Pseudomonas aeruginosa; P. aeruginosa 391K2415): 2 µg/mL
- MIC (Pseudomonas aeruginosa; P. aeruginosa 391KB9): 4 µg/mL
- MIC (Pseudomonas aeruginosa; P. aeruginosa 391KB14): 8 µg/mL
- MIC (Pseudomonas aeruginosa; P. aeruginosa 391KB21): 8 µg/mL
- MIC (Pseudomonas aeruginosa; P. aeruginosa 391KB33): 4 µg/mL
- MIC (Pseudomonas aeruginosa; P. aeruginosa 391KB38): 8 µg/mL
- MIC (Pseudomonas aeruginosa; P. aeruginosa 391KB62): > 32 µg/mL
- MIC (Pseudomonas aeruginosa; P. aeruginosa 391KB68): 1 µg/mL
- MIC (Pseudomonas aeruginosa; P. aeruginosa 391KB90): 16 µg/mL
- MIC (Pseudomonas aeruginosa; P. aeruginosa 391KB91): 16 µg/mL
- MIC (Pseudomonas aeruginosa; P. aeruginosa 391KB99): 16 µg/mL
- MIC (Pseudomonas aeruginosa; P. aeruginosa 391KB103): 8 µg/mL
- MIC (Pseudomonas aeruginosa; P. aeruginosa 391KB105): 4 µg/mL
- MIC (Pseudomonas aeruginosa; P. aeruginosa 391KB106): 4 µg/mL
- MIC (Pseudomonas aeruginosa; P. aeruginosa 391KB107): 32 µg/mL
- MIC (Pseudomonas aeruginosa; P. aeruginosa 391KB114): 16 µg/mL
- MIC (Pseudomonas aeruginosa; P. aeruginosa 391KB127): 2 µg/mL
- MIC (Pseudomonas aeruginosa; P. aeruginosa 391KB135): > 32 µg/mL
- MIC (Pseudomonas aeruginosa; P. aeruginosa 391KB136): > 32 µg/mL
- MIC (Pseudomonas aeruginosa; P. aeruginosa 391KB137): > 32 µg/mL
- MIC (Pseudomonas aeruginosa; P. aeruginosa 391KB138): > 32 µg/mL
- MIC (Pseudomonas aeruginosa; P. aeruginosa 391KB139): > 32 µg/mL
- MIC (Pseudomonas aeruginosa; P. aeruginosa 391KB140): 16 µg/mL
- MIC (Pseudomonas aeruginosa; P. aeruginosa 391KB141): > 32 µg/mL
- MIC (Pseudomonas aeruginosa; P. aeruginosa 391KB142): > 32 µg/mL
- MIC (Pseudomonas aeruginosa; P. aeruginosa 391KB143): > 32 µg/mL
- MIC (Pseudomonas aeruginosa; P. aeruginosa 391KB144): > 32 µg/mL
- MIC (Pseudomonas aeruginosa; P. aeruginosa 391QBR2): > 32 µg/mL
- MIC (Pseudomonas aeruginosa; P. aeruginosa 391QBR3): 32 µg/mL
- MIC (Pseudomonas aeruginosa; P. aeruginosa 391QBR4): 16 µg/mL
- MIC (Pseudomonas aeruginosa; P. aeruginosa 391QBR5): 32 µg/mL
- MIC (Pseudomonas aeruginosa; P. aeruginosa 391QBR7): 32 µg/mL
- MIC (Pseudomonas aeruginosa; P. aeruginosa 391QBR8): 16 µg/mL
- MIC (Pseudomonas aeruginosa; P. aeruginosa 391QBR9): 16 µg/mL
- MIC (Pseudomonas aeruginosa; P. aeruginosa 391QBR10): 4 µg/mL
- MIC (Pseudomonas aeruginosa; P. aeruginosa C3719): > 32 µg/mL
- MIC (Pseudomonas aeruginosa; P. aeruginosa PA2192): 8 µg/mL
- MIC (K. oxytoca; K. oxytoca 1431, TEM-129): 0.06 µg/mL
- MIC (K. oxytoca; K. oxytoca 16944, OXY-2, TEM-1): 0.06 µg/mL
- MIC (E. coli; 24 h, E. coli 2138, KPC-2 + TEM-1): 8 µg/mL
- MIC (E. coli; 24 h, E. coli (no alias), CTX-M-15 + TEM-1 + OXA-1): ≤ 0.03 µg/mL
- MIC (E. coli; 24 h, E. coli IND, VEB-1 + CMY-2): 0.06 µg/mL
- MIC (E. coli; 24 h, E. coli TN06, CTX-M-2 + TEM-1): 0.06 µg/mL
- MIC (E. coli; 24 h, E. coli TN13, CTX-M-14 + CMY-2 + TEM-1): 0.25 µg/mL
- MIC (E. coli; 24 h, E. coli Tunisie clone E4, CTX-M-16 + TEM-1): 0.125 µg/mL
- MIC (E. coli; E. coli (no alias), Cephalosporinase, read-out: MIC): 0.06 µg/mL (≈ 0.156 µM)
- MIC (E. coli; E. coli (no alias), SHV-4): ≤ 0.03 µg/mL
- MIC (E. coli; E. coli (no alias), TEM-3): ≤ 0.03 µg/mL

From patent US20100092443A1, “NOVEL COMBINATIONS OF NITROGENATED HETEROCYCLIC ANTIBACTERIAL COMPOUNDS WITH OTHER ANTIBACTERIAL COMPOUNDS AND THE USE OF SAME AS DRUGS” (priority 2008, published 2010)
